Assay results taken from ChEMBL document CHEMBL5316267, “Subnanomolar Affinity and Selective Antagonism at α7 Nicotinic Receptor by Combined Modifications of 2-Triethylammonium Ethyl Ether of 4-Stilbenol (MG624)” (J Med Chem, 2023).
pKi: −log10 of the molar value. The source made the active and inactive calls. The rule behind the calls is not given here.

Columns and labels:
[1] = molecular target: Neuronal acetylcholine receptor; alpha4/beta2 (Homo sapiens, UniProt P17787+P43681); experiment: Displacement of [3H]-Epibatidine from alpha4beta2 nAChR (unknown origin) expressed in HEK293 cell membrane assessed as inhibition constant by beta counter method; format: cell membranes
[2] = molecular target: Neuronal acetylcholine receptor; alpha3/beta4 (Homo sapiens, UniProt P30926+P32297); experiment: Displacement of [3H]-Epibatidine from alpha3beta4 nAChR (unknown origin) expressed in SH-EP1 cell membrane assessed as inhibition constant by beta counter method; format: cell membranes
[3] = molecular target: Neuronal acetylcholine receptor subunit alpha-7 (Homo sapiens) (UniProt P36544); experiment: Antagonist activity at human alpha7 nAChR expressed in acetylcholine-induced Xenopus laevis oocytes treated for 1 sec followed by acetylcholine stimulation 1 min post-compound treatment at holding potential of -70 mV by two electrode voltage-clamp assay; format: cell-based; conditions: Oocyte, filed as antagonist, time 61.0 sec
[4] = molecular target: Neuronal acetylcholine receptor; alpha9/alpha10 (Homo sapiens) (UniProt Q9UGM1+Q9GZZ6); experiment: Partial agonist activity at human alpha9alpha10 nAChR expressed in acetylcholine-induced Xenopus laevis oocytes assessed as residual activity treated for 1 sec followed by acetylcholine stimulation for 1 min post-compound treatment at holding potential of -70 mV by two electrode voltage-clamp assay; format: cell-based; conditions: Oocyte, time 61.0 sec

Chain of Neuronal acetylcholine receptor; alpha3/beta4 (P30926 whole entry): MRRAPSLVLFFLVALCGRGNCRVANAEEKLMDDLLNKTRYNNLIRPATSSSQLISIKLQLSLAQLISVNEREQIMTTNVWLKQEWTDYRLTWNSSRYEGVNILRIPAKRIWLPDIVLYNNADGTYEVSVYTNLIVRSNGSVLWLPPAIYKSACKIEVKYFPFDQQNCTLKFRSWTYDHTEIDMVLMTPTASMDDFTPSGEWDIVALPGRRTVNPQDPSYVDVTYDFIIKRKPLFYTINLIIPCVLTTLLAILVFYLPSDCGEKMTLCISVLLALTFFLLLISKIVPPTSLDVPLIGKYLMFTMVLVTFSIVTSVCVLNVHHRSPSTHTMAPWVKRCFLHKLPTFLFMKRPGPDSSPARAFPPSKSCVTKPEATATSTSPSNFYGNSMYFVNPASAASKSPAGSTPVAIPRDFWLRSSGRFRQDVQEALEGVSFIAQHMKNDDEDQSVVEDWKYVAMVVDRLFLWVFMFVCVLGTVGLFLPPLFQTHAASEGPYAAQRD
Chain of Neuronal acetylcholine receptor; alpha3/beta4 (P32297 whole entry): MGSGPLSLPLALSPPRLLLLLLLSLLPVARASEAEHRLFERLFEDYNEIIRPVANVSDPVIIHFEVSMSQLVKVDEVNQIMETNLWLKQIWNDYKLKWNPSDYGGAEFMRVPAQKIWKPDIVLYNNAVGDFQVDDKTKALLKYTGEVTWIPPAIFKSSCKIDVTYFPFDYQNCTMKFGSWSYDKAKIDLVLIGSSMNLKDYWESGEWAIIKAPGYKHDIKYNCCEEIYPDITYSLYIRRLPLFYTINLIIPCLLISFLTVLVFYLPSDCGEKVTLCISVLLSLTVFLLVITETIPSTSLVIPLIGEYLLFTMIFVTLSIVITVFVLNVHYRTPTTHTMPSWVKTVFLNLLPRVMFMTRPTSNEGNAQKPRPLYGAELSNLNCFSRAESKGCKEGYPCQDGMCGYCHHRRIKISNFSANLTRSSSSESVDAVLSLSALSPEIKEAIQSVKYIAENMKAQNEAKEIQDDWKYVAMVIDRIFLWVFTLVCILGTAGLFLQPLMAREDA
Chain of Neuronal acetylcholine receptor subunit alpha-7 (Homo sapiens) (P36544 whole entry): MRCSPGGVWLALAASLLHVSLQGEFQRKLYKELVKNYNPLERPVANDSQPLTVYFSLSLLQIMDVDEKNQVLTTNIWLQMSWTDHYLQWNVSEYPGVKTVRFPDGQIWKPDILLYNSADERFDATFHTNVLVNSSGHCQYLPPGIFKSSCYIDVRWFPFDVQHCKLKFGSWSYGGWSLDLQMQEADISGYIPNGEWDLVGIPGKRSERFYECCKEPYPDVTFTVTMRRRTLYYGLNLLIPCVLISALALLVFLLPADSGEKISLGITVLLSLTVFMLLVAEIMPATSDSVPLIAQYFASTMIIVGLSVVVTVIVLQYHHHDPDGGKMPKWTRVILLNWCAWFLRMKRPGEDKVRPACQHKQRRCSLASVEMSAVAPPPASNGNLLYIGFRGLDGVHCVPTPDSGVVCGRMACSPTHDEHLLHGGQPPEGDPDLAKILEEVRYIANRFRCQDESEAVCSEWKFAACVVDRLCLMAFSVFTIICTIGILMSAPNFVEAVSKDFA
Chain of Neuronal acetylcholine receptor; alpha4/beta2 (P17787 whole entry): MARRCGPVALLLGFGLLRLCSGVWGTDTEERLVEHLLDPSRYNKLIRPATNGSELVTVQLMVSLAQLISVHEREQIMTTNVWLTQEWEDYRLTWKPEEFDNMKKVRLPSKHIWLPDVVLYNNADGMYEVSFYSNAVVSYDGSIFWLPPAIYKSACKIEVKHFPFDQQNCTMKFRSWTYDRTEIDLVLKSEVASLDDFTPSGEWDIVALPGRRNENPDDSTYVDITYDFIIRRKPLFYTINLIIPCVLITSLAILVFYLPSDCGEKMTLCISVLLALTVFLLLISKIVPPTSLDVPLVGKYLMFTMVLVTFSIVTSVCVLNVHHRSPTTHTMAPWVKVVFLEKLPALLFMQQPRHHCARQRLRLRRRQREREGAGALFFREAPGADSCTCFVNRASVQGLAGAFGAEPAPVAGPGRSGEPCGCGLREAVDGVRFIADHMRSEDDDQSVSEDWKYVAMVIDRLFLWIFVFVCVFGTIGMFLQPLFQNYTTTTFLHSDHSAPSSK
Chain of Neuronal acetylcholine receptor; alpha4/beta2 (P43681 whole entry): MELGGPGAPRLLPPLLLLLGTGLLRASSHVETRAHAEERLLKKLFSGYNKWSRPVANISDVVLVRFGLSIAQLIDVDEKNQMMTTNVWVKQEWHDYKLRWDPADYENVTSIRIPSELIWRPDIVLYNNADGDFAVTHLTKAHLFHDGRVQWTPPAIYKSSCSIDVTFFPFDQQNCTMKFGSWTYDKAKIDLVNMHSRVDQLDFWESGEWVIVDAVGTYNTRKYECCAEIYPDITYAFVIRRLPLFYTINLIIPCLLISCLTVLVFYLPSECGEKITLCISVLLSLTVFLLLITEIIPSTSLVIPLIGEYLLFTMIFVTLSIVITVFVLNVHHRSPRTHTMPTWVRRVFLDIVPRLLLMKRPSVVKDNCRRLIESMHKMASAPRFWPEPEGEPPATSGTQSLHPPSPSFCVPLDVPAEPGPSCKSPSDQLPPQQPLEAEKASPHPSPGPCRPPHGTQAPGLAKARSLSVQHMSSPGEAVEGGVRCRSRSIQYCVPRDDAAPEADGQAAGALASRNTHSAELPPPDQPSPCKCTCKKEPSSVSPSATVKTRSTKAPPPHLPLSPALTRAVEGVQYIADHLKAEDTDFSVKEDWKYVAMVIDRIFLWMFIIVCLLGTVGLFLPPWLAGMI

CC[N+](CC)(CC)CCOc1ccc(OCc2ccccc2)cc1
pKi [1]: 5.12

CC[N+](CC)(CC)CCOc1ccc(-c2cccc3ccccc23)cc1
pKi [2]: 7.01

C[N+]1(C)CC[C@@H](Oc2ccc(-c3ccc4[nH]ccc4c3)cc2)C1
Activity [3]: Active

CC[N+](CC)(CC)CCOc1ccc(CCc2ccccc2)cc1
Activity [4]: inactive
